From patent publication US12304890B2, “R-type pyridyloxycarboxylic acid, salt and ester derivative thereof, and preparation method therefor, and herbicidal composition and application thereof” (Qingdao Kingagroot Chemical Compound Co., Ltd., priority 2018, dated 2025)

Test system: Monocotyledonous and dicotyledonous weed seeds and main crop seeds
Assay: Post-emergence test experiment, other weeds and crops (Table 4, 1000 g a.i./ha)
Type: in vivo
Conditions: 3 weeks in greenhouse, fresh weight inhibition
Experimental: The above described growth inhibition rate is fresh weight inhibition rate.
Post-emergence test experiment: Monocotyledonous and dicotyledonous weed seeds and main crop seeds (i. e. wheat, corn, rice, soybean, cotton, oilseed, millet and sorghum.) were put into a plastic pot loaded with soil. Then covered with 0.5-2 cm soil, the seeds were allowed to grow in good greenhouse environment. The test plants were treated at 2-3 leaf stage 2 weeks after sowing. The test compounds of the invention were dissolved with acetone respectively, then added with tween-80, and using 1.5 liters per hectare of an emulsible concentrate of methyl oleate as a synergist, and diluted by certain amount of water to certain concentration. The solution was sprayed to the plants with a sprayer.

Row | Structure (SMILES) | Activity level (growth inhibition rate), Abutilon theophrasti Medic. | Activity level (growth inhibition rate), Galium aparine | Activity level (growth inhibition rate), Monochoria Vaginalis
1 | Nc1c(Cl)c(F)nc(O[C@@H](C(=O)[O-])c2ccccc2)c1Cl.[Na+] [Compound 2-1] | 5 (Level 5: the growth inhibition rate is greater than 85%) | 5 (Level 5: the growth inhibition rate is greater than 85%) | 5 (Level 5: the growth inhibition rate is greater than 85%)
2 | CCC(Oc1nc(F)c(Cl)c(N)c1Cl)C(=O)[O-].C[N+](C)(C)Cc1ccccc1 (stereo not drawn) [Compound 2-5] | 5 (Level 5: the growth inhibition rate is greater than 85%) | 5 (Level 5: the growth inhibition rate is greater than 85%) | 5 (Level 5: the growth inhibition rate is greater than 85%)
3 | C[N+](C)(C)CCO.Nc1c(Cl)c(F)nc(O[C@@H](C(=O)[O-])c2ccccc2)c1Cl [Compound 2-6] | 5 (Level 5: the growth inhibition rate is greater than 85%) | 5 (Level 5: the growth inhibition rate is greater than 85%) | 5 (Level 5: the growth inhibition rate is greater than 85%)
4 | CC(C)N.Nc1c(Cl)c(F)nc(O[C@@H](C(=O)O)c2ccccc2)c1Cl [Compound 2-8] | 5 (Level 5: the growth inhibition rate is greater than 85%) | 5 (Level 5: the growth inhibition rate is greater than 85%) | 5 (Level 5: the growth inhibition rate is greater than 85%)
5 | NCc1ccccc1 [Compound 2-9, benzylamine] | 5 (Level 5: the growth inhibition rate is greater than 85%) | 5 (Level 5: the growth inhibition rate is greater than 85%) | 5 (Level 5: the growth inhibition rate is greater than 85%)
6 | CCC(Oc1nc(F)c(Cl)c(N)c1Cl)C(=O)O.NCCO (stereo not drawn) [Compound 2-10] | 5 (Level 5: the growth inhibition rate is greater than 85%) | 5 (Level 5: the growth inhibition rate is greater than 85%) | 5 (Level 5: the growth inhibition rate is greater than 85%)
7 | NCCOCCO.Nc1c(Cl)c(F)nc(O[C@@H](C(=O)O)c2ccccc2)c1Cl [Compound 2-11] | 5 (Level 5: the growth inhibition rate is greater than 85%) | 5 (Level 5: the growth inhibition rate is greater than 85%) | 5 (Level 5: the growth inhibition rate is greater than 85%)
8 | C=CCNCC=C.CCC(Oc1nc(F)c(Cl)c(N)c1Cl)C(=O)S (stereo not drawn) [Compound 2-12] | 5 (Level 5: the growth inhibition rate is greater than 85%) | 5 (Level 5: the growth inhibition rate is greater than 85%) | 5 (Level 5: the growth inhibition rate is greater than 85%)
9 | NC1CCCCCCCCCCC1 [Compound 2-13, cyclododecylamine] | 5 (Level 5: the growth inhibition rate is greater than 85%) | 5 (Level 5: the growth inhibition rate is greater than 85%) | 5 (Level 5: the growth inhibition rate is greater than 85%)
10 | NCCNCCN.Nc1c(Cl)c(F)nc(OC(C(=O)O)c2ccccc2)c1Cl (stereo not drawn) [Compound 2-15] | 5 (Level 5: the growth inhibition rate is greater than 85%) | 5 (Level 5: the growth inhibition rate is greater than 85%) | 5 (Level 5: the growth inhibition rate is greater than 85%)
11 | CN(C)CCCN.Nc1c(Cl)c(F)nc(OC(C(=O)O)c2ccccc2)c1Cl (stereo not drawn) [Compound 2-16] | 5 (Level 5: the growth inhibition rate is greater than 85%) | 5 (Level 5: the growth inhibition rate is greater than 85%) | 5 (Level 5: the growth inhibition rate is greater than 85%)
12 | NCCNCCNCCN [Compound 2-18, triethylenetetramine] | 5 (Level 5: the growth inhibition rate is greater than 85%) | 5 (Level 5: the growth inhibition rate is greater than 85%) | 5 (Level 5: the growth inhibition rate is greater than 85%)
13 | CN(CCCN)CCCN [Compound 2-19, N,N-bis[aminopropyl]methylamine] | 5 (Level 5: the growth inhibition rate is greater than 85%) | 5 (Level 5: the growth inhibition rate is greater than 85%) | 5 (Level 5: the growth inhibition rate is greater than 85%)
14 | CCCCOCCN [Compound 2-21, 2-butoxyethylamine] | 5 (Level 5: the growth inhibition rate is greater than 85%) | 5 (Level 5: the growth inhibition rate is greater than 85%) | 5 (Level 5: the growth inhibition rate is greater than 85%)
15 | NC(CO)(CO)CO [Compound 2-23, tri(methylol) aminomethane] | 5 (Level 5: the growth inhibition rate is greater than 85%) | 5 (Level 5: the growth inhibition rate is greater than 85%) | 5 (Level 5: the growth inhibition rate is greater than 85%)
16 | CCC(Oc1nc(F)c(Cl)c(N)c1Cl)C(=O)S.NCCCN1CCOCC1 (stereo not drawn) [Compound 2-25] | 5 (Level 5: the growth inhibition rate is greater than 85%) | 5 (Level 5: the growth inhibition rate is greater than 85%) | 5 (Level 5: the growth inhibition rate is greater than 85%)
17 | CC[C@@H](Oc1nc(F)c(Cl)c(N)c1Cl)C(=O)SC [Compound 2-33] | 5 (Level 5: the growth inhibition rate is greater than 85%) | 5 (Level 5: the growth inhibition rate is greater than 85%) | 5 (Level 5: the growth inhibition rate is greater than 85%)
18 | CCC(Oc1nc(F)c(Cl)c(N)c1Cl)C(=O)OC (stereo not drawn) [Compound 2-34] | 5 (Level 5: the growth inhibition rate is greater than 85%) | 5 (Level 5: the growth inhibition rate is greater than 85%) | 5 (Level 5: the growth inhibition rate is greater than 85%)
19 | COC(=O)C(Oc1nc(F)c(Cl)c(N)c1Cl)C(C)C (stereo not drawn) [Compound 2-35] | 5 (Level 5: the growth inhibition rate is greater than 85%) | 5 (Level 5: the growth inhibition rate is greater than 85%) | 5 (Level 5: the growth inhibition rate is greater than 85%)
20 | CSC(=O)C(Oc1nc(F)c(Cl)c(N)c1Cl)C(C)C (stereo not drawn) [Compound 2-36] | 5 (Level 5: the growth inhibition rate is greater than 85%) | 5 (Level 5: the growth inhibition rate is greater than 85%) | 5 (Level 5: the growth inhibition rate is greater than 85%)
21 | CCCC(Oc1nc(F)c(Cl)c(N)c1Cl)C(=O)OC (stereo not drawn) [Compound 2-37] | 5 (Level 5: the growth inhibition rate is greater than 85%) | 5 (Level 5: the growth inhibition rate is greater than 85%) | 5 (Level 5: the growth inhibition rate is greater than 85%)
22 | COC(=O)C(Oc1nc(F)c(Cl)c(N)c1Cl)C1CC1 (stereo not drawn) [Compound 2-38] | 5 (Level 5: the growth inhibition rate is greater than 85%) | 5 (Level 5: the growth inhibition rate is greater than 85%) | 5 (Level 5: the growth inhibition rate is greater than 85%)
23 | COC(=O)C(Oc1nc(F)c(Cl)c(N)c1Cl)C(F)(F)F (stereo not drawn) [Compound 2-39] | 5 (Level 5: the growth inhibition rate is greater than 85%) | 5 (Level 5: the growth inhibition rate is greater than 85%) | 5 (Level 5: the growth inhibition rate is greater than 85%)
24 | COC(=O)C(CC(F)(F)F)Oc1nc(F)c(Cl)c(N)c1Cl (stereo not drawn) [Compound 2-40] | 5 (Level 5: the growth inhibition rate is greater than 85%) | 5 (Level 5: the growth inhibition rate is greater than 85%) | 5 (Level 5: the growth inhibition rate is greater than 85%)
25 | COC(=O)C(CCl)Oc1nc(F)c(Cl)c(N)c1Cl (stereo not drawn) [Compound 2-41] | 5 (Level 5: the growth inhibition rate is greater than 85%) | 5 (Level 5: the growth inhibition rate is greater than 85%) | 5 (Level 5: the growth inhibition rate is greater than 85%)
26 | COC(=O)C(CCCl)Oc1nc(F)c(Cl)c(N)c1Cl (stereo not drawn) [Compound 2-42] | 5 (Level 5: the growth inhibition rate is greater than 85%) | 5 (Level 5: the growth inhibition rate is greater than 85%) | 5 (Level 5: the growth inhibition rate is greater than 85%)
